According to PubChem BioAssay (NCI):
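Test compounds were applied to cells in 96-well plates for 48 hours at 5 doses. TGI is the concentration that stops growth completely.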

Key:
Assay in all cases: growth of human tumour cells (NCI), 48 h
K-562 leukemia = system: K-562 leukemia
U251 CNS = system: U251 CNS
NCI-H226 lung = system: NCI-H226 lung
SK-OV-3 ovarian = system: SK-OV-3 ovarian
TK-10 renal = system: TK-10 renal
HOP-62 NSCLC = system: HOP-62 NSCLC
SF-539 CNS = system: SF-539 CNS
MOLT-4 leukemia = system: MOLT-4 leukemia
HOP-18 NSCLC = system: HOP-18 NSCLC
MALME-3M melanoma = system: MALME-3M melanoma
RPMI-8226 leukemia = system: RPMI-8226 leukemia
SNB-75 CNS = system: SNB-75 CNS
HCC-2998 colon = system: HCC-2998 colon
UO-31 renal = system: UO-31 renal
HL-60(TB) leukemia = system: HL-60(TB) leukemia
SF-295 CNS = system: SF-295 CNS
HCT-15 colon = system: HCT-15 colon
COLO 205 colon = system: COLO 205 colon
OVCAR-3 ovarian = system: OVCAR-3 ovarian
ACHN renal = system: ACHN renal
NCI-H460 lung = system: NCI-H460 lung
SW-620 colon = system: SW-620 colon
CCRF-CEM leukemia = system: CCRF-CEM leukemia
M19-MEL melanoma = system: M19-MEL melanoma
SR leukemia = system: SR leukemia
786-0 renal = system: 786-0 renal
KM20L2 colon = system: KM20L2 colon
SF-268 CNS = system: SF-268 CNS
EKVX NSCLC = system: EKVX NSCLC
HOP-92 NSCLC = system: HOP-92 NSCLC
SN12C renal = system: SN12C renal
XF 498 CNS = system: XF 498 CNS
OVCAR-5 ovarian = system: OVCAR-5 ovarian
SNB-78 CNS = system: SNB-78 CNS
NCI-H522 lung = system: NCI-H522 lung
SK-MEL-28 melanoma = system: SK-MEL-28 melanoma
SNB-19 CNS = system: SNB-19 CNS
UACC-62 melanoma = system: UACC-62 melanoma
LXFL 529 NSCLC = system: LXFL 529 NSCLC
SK-MEL-2 melanoma = system: SK-MEL-2 melanoma
IGROV1 ovarian = system: IGROV1 ovarian
HT29 colon = system: HT29 colon
DMS 273 small cell lung = system: DMS 273 small cell lung
SK-MEL-5 melanoma = system: SK-MEL-5 melanoma
LOX IMVI melanoma = system: LOX IMVI melanoma
OVCAR-8 ovarian = system: OVCAR-8 ovarian
HCT-116 colon = system: HCT-116 colon
M14 melanoma = system: M14 melanoma
DMS 114 small cell lung = system: DMS 114 small cell lung
KM12 colon = system: KM12 colon
RXF 393 renal = system: RXF 393 renal
RXF-631 renal = system: RXF-631 renal
NCI-H23 lung = system: NCI-H23 lung
UACC-257 melanoma = system: UACC-257 melanoma
OVCAR-4 ovarian = system: OVCAR-4 ovarian
CAKI-1 renal = system: CAKI-1 renal
A498 renal = system: A498 renal
A549 NSCLC = system: A549 NSCLC

## COc1cc2c(cc1OC)C(C#N)(Cc1ccccc1)N(C(=O)c1ccccc1)C=C2 (stereo not given)
K-562 leukemia
  TGI: > 100 µM
U251 CNS
  TGI: > 100 µM
NCI-H226 lung
  TGI: > 100 µM
SK-OV-3 ovarian
  TGI: > 100 µM
TK-10 renal
  TGI: > 100 µM
HOP-62 NSCLC
  TGI: > 100 µM
SF-539 CNS
  TGI: > 100 µM
MOLT-4 leukemia
  TGI: > 100 µM
HOP-18 NSCLC
  TGI: > 100 µM
MALME-3M melanoma
  TGI: > 100 µM
RPMI-8226 leukemia
  TGI: > 100 µM
SNB-75 CNS
  TGI: > 100 µM
HCC-2998 colon
  TGI: > 100 µM
UO-31 renal
  TGI: > 100 µM
HL-60(TB) leukemia
  TGI: > 100 µM
SF-295 CNS
  TGI: > 100 µM
HCT-15 colon
  TGI: > 100 µM
COLO 205 colon
  TGI: > 100 µM
OVCAR-3 ovarian
  TGI: > 100 µM
ACHN renal
  TGI: > 100 µM
NCI-H460 lung
  TGI: > 100 µM
SW-620 colon
  TGI: > 100 µM
CCRF-CEM leukemia
  TGI: > 100 µM
M19-MEL melanoma
  TGI: > 100 µM
SR leukemia
  TGI: > 100 µM
786-0 renal
  TGI: > 100 µM
KM20L2 colon
  TGI: > 100 µM
SF-268 CNS
  TGI: > 100 µM
EKVX NSCLC
  TGI: > 100 µM
HOP-92 NSCLC
  TGI: > 100 µM
SN12C renal
  TGI: > 100 µM
XF 498 CNS
  TGI: 87 µM
OVCAR-5 ovarian
  TGI: > 100 µM
SNB-78 CNS
  TGI: > 100 µM
NCI-H522 lung
  TGI: > 100 µM
SK-MEL-28 melanoma
  TGI: > 100 µM
SNB-19 CNS
  TGI: > 100 µM
UACC-62 melanoma
  TGI: > 100 µM
LXFL 529 NSCLC
  TGI: > 100 µM
SK-MEL-2 melanoma
  TGI: > 100 µM
IGROV1 ovarian
  TGI: > 100 µM
HT29 colon
  TGI: > 100 µM
DMS 273 small cell lung
  TGI: > 100 µM
SK-MEL-5 melanoma
  TGI: 62.9 µM
LOX IMVI melanoma
  TGI: > 100 µM
OVCAR-8 ovarian
  TGI: > 100 µM
HCT-116 colon
  TGI: > 100 µM
M14 melanoma
  TGI: > 100 µM
DMS 114 small cell lung
  TGI: 53.2 µM
KM12 colon
  TGI: > 100 µM
RXF 393 renal
  TGI: 76.1 µM
RXF-631 renal
  TGI: > 100 µM
NCI-H23 lung
  TGI: > 100 µM
UACC-257 melanoma
  TGI: > 100 µM

## N#CSCc1nc2ccc(Cl)cc2c(-c2ccccc2)[n+]1[O-]
K-562 leukemia
  TGI: 87.7 µM
U251 CNS
  TGI: 80.6 µM
NCI-H226 lung
  TGI: 64.5 µM
TK-10 renal
  TGI: > 100 µM
HOP-62 NSCLC
  TGI: > 100 µM
MOLT-4 leukemia
  TGI: 41.6 µM
HOP-18 NSCLC
  TGI: 33.6 µM
MALME-3M melanoma
  TGI: 62.5 µM
RPMI-8226 leukemia
  TGI: 54.4 µM
SNB-75 CNS
  TGI: 88.2 µM
HCC-2998 colon
  TGI: 29.1 µM
UO-31 renal
  TGI: 32.7 µM
HL-60(TB) leukemia
  TGI: 42.9 µM
OVCAR-4 ovarian
  TGI: 55.2 µM
SF-295 CNS
  TGI: > 100 µM
HCT-15 colon
  TGI: 32.5 µM
COLO 205 colon
  TGI: > 100 µM
OVCAR-3 ovarian
  TGI: 44.4 µM
ACHN renal
  TGI: 30.5 µM
NCI-H460 lung
  TGI: > 100 µM
SW-620 colon
  TGI: 30.2 µM
CCRF-CEM leukemia
  TGI: 39.2 µM
M19-MEL melanoma
  TGI: > 100 µM
SR leukemia
  TGI: 76.1 µM
786-0 renal
  TGI: 32.1 µM
KM20L2 colon
  TGI: 30.8 µM
SF-268 CNS
  TGI: 61.7 µM
EKVX NSCLC
  TGI: 40.9 µM
HOP-92 NSCLC
  TGI: 34.7 µM
SN12C renal
  TGI: 39.5 µM
XF 498 CNS
  TGI: 33 µM
OVCAR-5 ovarian
  TGI: 39 µM
SNB-78 CNS
  TGI: > 100 µM
CAKI-1 renal
  TGI: 47.9 µM
SK-MEL-28 melanoma
  TGI: 27.7 µM
A498 renal
  TGI: > 100 µM
SNB-19 CNS
  TGI: > 100 µM
UACC-62 melanoma
  TGI: 36.9 µM
LXFL 529 NSCLC
  TGI: 26.8 µM
SK-MEL-2 melanoma
  TGI: 42.3 µM
A549 NSCLC
  TGI: > 100 µM
HT29 colon
  TGI: 35 µM
LOX IMVI melanoma
  TGI: 31.9 µM
OVCAR-8 ovarian
  TGI: 38.5 µM
HCT-116 colon
  TGI: 39.7 µM
M14 melanoma
  TGI: 42.1 µM
DMS 114 small cell lung
  TGI: 72.5 µM
KM12 colon
  TGI: 51.9 µM
RXF 393 renal
  TGI: 26.4 µM
RXF-631 renal
  TGI: > 100 µM
UACC-257 melanoma
  TGI: > 100 µM
